Format in all cases: functional
Assay [1] has as its system Mus musculus. Nature of the assay: Mean jumps/mouse was measured at 10 mg/kg dose.
Assay [2] deals with Mus musculus. Description: Mean jumps/mouse was measured at 3 mg/kg dose.
Assay [3] deals with Mus musculus. Description: Total jumps of mice was measured at 10 mg/kg dose.
Assay [4] deals with Mus musculus. Nature of the assay: Total jumps of mice was measured at 3 mg/kg dose.
The test system of assay [5] is Mus musculus. Nature of the assay: Percentage inhibition of jumping was measured at 10 mg/kg dose.
The test system of assay [6] is Mus musculus. Description: Percentage inhibition of jumping was measured at 3 mg/kg dose.

By inhibition in vivo is commonly meant the percentage by which the read-out fell short of the control. As to `CSCC1CC2c3cccc4[nH]nc(c34)CC2N(C)C1` (stereo unspecified), the Activity in the assay on Mus musculus [1] amounted to 508; with Mus musculus [2], 426; with Mus musculus [3], 6096; in the assay on Mus musculus [4] it was 5113. The molecule further displayed an inhibition in vivo at 10 mg/kg in the assay with Mus musculus [5] of 49.6%. Also, the inhibition in vivo at 3 mg/kg in the assay on Mus musculus [6] was determined as 47.9%.

The values are drawn from ChEMBL document CHEMBL1121431, “Preparation and biological evaluation of 2-azaergolines” (1980).
